Measured values: publication PMC2685987, “Integrating Statistical Predictions and Experimental Verifications for Enhancing Protein-Chemical Interaction Predictions in Virtual Screening” (PLoS Computational Biology, 2009)

Target: T1, MBP-ARC (Maltose Binding Protein tagged Androgen Receptor C-termini) (Homo sapiens, UniProt P10275)
T1 construct: made in house; host or cells: E. coli DH5a
T1 sequence (P10275 609-919): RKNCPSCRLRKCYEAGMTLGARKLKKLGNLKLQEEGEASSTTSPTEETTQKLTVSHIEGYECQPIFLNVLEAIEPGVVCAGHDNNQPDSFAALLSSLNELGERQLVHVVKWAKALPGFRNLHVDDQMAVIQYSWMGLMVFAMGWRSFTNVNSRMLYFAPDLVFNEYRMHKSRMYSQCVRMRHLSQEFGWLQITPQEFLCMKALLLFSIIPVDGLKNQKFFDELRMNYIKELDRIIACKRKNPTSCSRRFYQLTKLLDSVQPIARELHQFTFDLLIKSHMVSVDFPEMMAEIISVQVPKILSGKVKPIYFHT
Test: in vitro binding assay - hydroxyapatite method ([3H]-DHT competition)
Conditions: concentration of unlabeled test compound at which 50% of the [3H]-DHT is still bound to MBP-ARC; 2 nM [3H]-DHT, 50 µg/ml MBP-ARC, three hours
Protocol: 1.9 The in vitro binding assay - hydroxyapatite method
800 mM NaCl, 10 % glycerol, 1mg/ml BSA and 2mM DTT to obtain a 100 l mixture solution.
mixture solution was incubated at 4 for 3 hours.
After incubation, BioGel HT (Bio-Rad Laboratories) was added to the solution and incubated on ice
for 15 minutes, during which vortexing was done every 5 minutes. The incubated solution was centrifuged
at 1,000 rpm for a minute and a supernatant was removed.
A wash buﬀer consisting of 40 mM Tris-HCl pH 7.6, 100 mM KCl, 1mM EDTA and 1mM EGTA and
cooled on ice was added to the precipitate by 1 ml and mixed. The produced solution was centrifuged
at 1,000 rpm and a supernatant was removed. This process was repeated three times.
The collected precipitate was suspended in 3 ml Aquasol (New England nuclear Corp.). Radioactivity
of the suspended solution in a scintillation vial (Perkin Elmer) was measured by a liquid scintillation
test compounds was regarded as IC50 of the test compound.

IC50: 80 µM
Structure (SMILES): Cc1c(-c2ccc(NC(=O)C(C)(C)C)cc2)nc2ccc(Cl)cn12 [T5853872]
